Results as given in ChEMBL document CHEMBL5335852, “The Promiscuous Flavin-Dependent Monooxygenase PboD from Aspergillus ustus Increases the Structural Diversity of Hydroxylated Pyrroloindoline Diketopiperazines” (J Nat Prod, 2024).
Activity calls are given as the source filed them.

Key:
Format in all cases: functional, organism-based
Escherichia coli = test: Antibacterial activity against Escherichia coli ATCC 35218 assessed as inhibition of bacterial growth incubated for 20 hrs by agar disk-diffusion method
Enterococcus faecalis = test: Antibacterial activity against Enterococcus faecalis DSM 2570 assessed as inhibition of bacterial growth incubated for 20 hrs by agar disk-diffusion method
Klebsiella pneumoniae = test: Antibacterial activity against Klebsiella pneumoniae DSM 26371 assessed as inhibition of bacterial growth incubated for 20 hrs by agar disk-diffusion method
Bacillus subtilis = test: Antibacterial activity against Bacillus subtilis […] assessed as inhibition of bacterial growth incubated for 20 hrs by agar disk-diffusion method
Niallia circulans = test: Antibacterial activity against Bacillus circulans NRRL B-380 assessed as inhibition of bacterial growth incubated for 20 hrs by agar disk-diffusion method
Staphylococcus aureus = test: Antibacterial activity against Staphylococcus aureus ATCC29213 assessed as inhibition of bacterial growth incubated for 20 hrs by agar disk-diffusion method
Staphylococcus delphini = test: Antibacterial activity against Staphylococcus delphini DSM 20771 assessed as inhibition of bacterial growth incubated for 20 hrs by agar disk-diffusion method
Pseudomonas aeruginosa = test: Antibacterial activity against Pseudomonas aeruginosa ATCC 27853 assessed as inhibition of bacterial growth incubated for 20 hrs by agar disk-diffusion method

Measured: Activity

O=C1N[C@@H](Cc2c[nH]c3ccccc23)C(=O)N2[C@H]1C[C@@]1(O)c3ccccc3N[C@@H]21
inactive: all assays above

O=C1N[C@@H](Cc2ccccc2)C(=O)N2[C@H]1C[C@@]1(O)c3ccccc3N[C@@H]21
inactive: all assays above

CSCC[C@@H]1NC(=O)[C@@H]2C[C@@]3(O)c4ccccc4N[C@H]3N2C1=O
inactive: all assays above

CC(C)C[C@@H]1NC(=O)[C@@H]2C[C@@]3(O)c4ccccc4N[C@H]3N2C1=O
inactive: all assays above

O=C1N[C@@H](Cc2ccc(O)cc2)C(=O)N2[C@H]1C[C@@]1(O)c3ccccc3N[C@@H]21
inactive: all assays above

C[C@@H]1NC(=O)[C@@H]2C[C@@]3(O)c4ccccc4N[C@H]3N2C1=O
inactive: all assays above
